Peptide text beside a SMILES is read from it. * marks the point of attachment. Cbz = O=C(OCc1ccccc1)*
Key:
Assay type in all cases: cell-based, human
TAp73α = experiment: Steady state protein levels analysis with proteasome inhibitor in Hek293 cells co-transfected with Itch; conditions: MG132 50 μM, 40 min
Experimental: The concentration of TAp73α, TAp73 ? and p53 was monitored by Western blotting. […] 25 μg of cell lysates were subjected to Western blotting. p73 proteins were detected by an anti-HA antibody. The same blots were re-probed with anti Myc antibody to detect Itch and with anti-Actin antibody to show equal loading.

Itch = experiment: Western blot of endogenous Itch after DNA damaging agents in Saos-2 cells; conditions: 24 and 48 hours, 2 μM doxorubicin, 15 μM etoposide, 5 μM cisplatin
Experimental: (§1) FIG. 7 Itch is down regulated by DNA damaging agents. Saos-2 cells were treated with 2 μM doxorubicin (Doxo) for 24 or 48 hours then collected by trypsinization. Cells were lysed for western blotting (A) and half of the cells were ethanol fixed for apoptosis analysis (B). Western blots were performed with either anti-Itch (upper panel) or anti-p73 (lower panel) antibodies. Blots were stripped and re-probed with anti Lamin B antibody to show equal loading. Apoptosis was evaluated by flow cytometric analysis of PI stained cells. Non-treated controls (N.T.) are shown. H1299 cells transfected with HA-TAp73 ? (Con) are loaded as a control for p73 western blot.
(D) Western blot using anti-Itch antibody on Saos-2 cells treated for 24 and 48 hours with either 15 μM etoposide (Etopo) or 5 μM cisplatin (Cisp). Non-treated control cells are also shown (N.T.). Blots were stripped and re-probed with anti p73 antibody and Lamin B antibody to show equal loading.
Proteins were separated on SDS-PAGE and blotted onto nitrocellulose membranes. Filters were blocked with TBST 5% non-fat dry milk and incubated with primary antibodies for 2 hrs at room temperature (RT). Filters were incubated for 1 hour at RT using the appropriate horseradish peroxidase-conjugated secondary antibody (rabbit and mouse BioRad; goat Santa Cruz). Detection was performed with the enhanced chemiluminescence Supersignal West Pico (Pierce). […] Endogenous Itch was detected with a mouse monoclonal antibody (BD Bioscience), Actin (sc-1615) polyclonal goat antibody (Santa Cruz), Lamin B (sc-6217) goat polyclonal antibody (Santa Cruz), Hsp70 (sc-1060) polyclonal goat antibody (Santa Cruz), β-Tubulin (sc-9104) polyclonal rabbit antibody (Santa Cruz), p21 (sc-756) polyclonal rabbit antibody (Santa Cruz), p53 DO-1 and Pab1801 monoclonal mouse antibodies (Santa Cruz). c-Myc-tagged constructs were detected or immuno-precipitated with the sc-40 monoclonal mouse antibody (Santa Cruz), HA-tagged with the sc-805 polyclonal rabbit antibody (Santa Cruz), and the Flag-tagged constructs with the M2 monoclonal mouse antibody (Sigma).

TAp73 = experiment: Western blot of endogenous p73 after doxorubicin in Saos-2 cells; conditions: 2 μM doxorubicin, 24 or 48 hours
Experimental: as §1
Proteins were separated on SDS-PAGE and blotted onto nitrocellulose membranes. Filters were blocked with TBST 5% non-fat dry milk and incubated with primary antibodies for 2 hrs at room temperature (RT). Filters were incubated for 1 hour at RT using the appropriate horseradish peroxidase-conjugated secondary antibody (rabbit and mouse BioRad; goat Santa Cruz). Detection was performed with the enhanced chemiluminescence Supersignal West Pico (Pierce). Anti-p73 is a monoclonal antibody (ER15) (Neomarkers). […]

Saos-2 cells = experiment: Apoptosis by flow cytometric analysis of PI stained cells after doxorubicin; conditions: 2 μM doxorubicin, 24 or 48 hours
Experimental: as §1
Human embryonal kidney cells (Hek293), HeLa cells and MEFs were grown in Dulbecco's modified Eagle medium (DMEM) (GibcoBRL); the human lung carcinoma cells H1299 and the human osteosarcoma cells Saos-2 were cultured in RPMI (GibcoBRL). MEF Itch−/− cells were prepared from Itch−/− mice (Y—C-Liu) or they were generous gift from Neil Copeland, Lynda Matesic, Nancy Jenkins. All media were supplemented with 10% (v/v) fetal bovine serum (FBS) (GibcoBRL). Saos-2-TAp73 ? were a kind gift of K. Vousden (Nakano, 2000). Saos-2-ΔNp73 ? were generated as described before (Maisse et al., 2004). […] Apoptosis was analysed by flow cytometric evaluation of DNA fragmentation.

| Structure (SMILES) | steady state levels of TAp73α in presence of Itch (TAp73α) | endogenous Itch protein levels (Itch) | endogenous TAp73 levels (TAp73) | apoptosis (Saos-2 cells) |
| --- | --- | --- | --- | --- |
| CC(C)C[C@@H](C=O)NC(=O)[C@H](CC(C)C)NC(=O)[C@H](CC(C)C)NC(=O)OCc1ccccc1 [MG132] (Cbz-Leu-Leu-Leu-aldehyde) | blocks the Itch-mediated TAp73α degradation |  |  |  |
| N.N.[Cl][Pt][Cl] [cisplatin] |  | dramatic reduction in Itch protein levels |  |  |
| COc1cccc2c1C(=O)c1c(O)c3c(c(O)c1C2=O)C[C@@](O)(C(=O)CO)C[C@@H]3O[C@H]1C[C@H](N)[C@H](O)[C@H](C)O1 [doxorubicin] |  | down-regulated | increase in endogenous TAp73 levels | increase in apoptosis |
| COc1cc([C@@H]2c3cc4c(cc3[C@@H](O[C@@H]3O[C@@H]5CO[C@@H](C)O[C@H]5[C@H](O)[C@H]3O)[C@H]3COC(=O)[C@H]23)OCO4)cc(OC)c1O [etoposide] |  | dramatic reduction in Itch protein levels |  |  |

Source: patent US9051572B2, “Modulators of Itch ubiquitinase activity” (RYBOQUIN COMPANY LIMITED, priority 2005, dated 2015)
